Source: US9169315B2, “Heparin cofactor II fragments with anti-inflammatory and anti-coagulant activity” (XIMMUNE AB, priority 2009, dated 2015)
“Also recorded” adds a separate entry of the source. No end group written: not given here.

Tests used:
P. aeruginosa 15159 = experiment: P. aeruginosa infection model (sepsis); format: in vivo, mice
Method: Mice were inoculated with P. aeruginosa and KYE28 (0.5 mg) was administrated sc 1 h after infection. (A) Bacterial counts in the indicated organs were analyzed after a time period of 4, 8, and 12 h. (B) In parallel, the indicated cytokines were analyzed in blood.
(A) Bacterial counts in the indicated organs were analyzed after a time period of 12 h. (B) Effects on platelets, lymphocytes, monocytes and neutrohils are shown. (C) In parallel, the indicated cytokines were analyzed in blood. […]
(A) P. aeruginosa 15159 bacteria (in PBS, ˜2×10^4 or 2×10^8 cfu/ml) were kept on ice until injection. Hundred microliter of the bacterial suspension were injected intraperitoneally (ip) into C57/Bl6 mice. At ˜10 min after the bacterial injection, 0.5 mg of NLF20 or PBS alone was injected ip into the mice. Liver, spleen and kidney were harvested, placed on ice, homogenized, and colony-forming units (cfu) determined 12 h after infection. (B) In a similar infection model (2×10^8 cfu/ml of P. aeruginosa) intraperitoneal (ip) administration after 30 min was compared with subcutaneous injection (sc) after 1 h. 0.5 mg of NLF20 was used. […] Mice were injected intraperitoneally with P. aeruginosa as above followed by ip or sc administration of NLF20 (500 μg). Survival was followed for 7 days. […] (D) NLF20 effects on TNF-α and IL-10 were analyzed in blood. (E) Thrombocytes were analyzed in blood. Treatment with NLF20 (ip and sc) increased thrombocyte levels.
Animals were Housed Under Standard Conditions of Light and Temperature and Had free access to standard laboratory chow and water. P. aeruginosa 15159 bacteria were grown to logarithmic phase (OD620˜0.5), harvested, washed in PBS, diluted in the same buffer to 2×10^8 cfu/ml, and kept on ice until injection. Hundred microliter of the bacterial suspension was injected intraperitoneally (i.p.) into female bI6 mice. […] In order to study bacterial dissemination to target organs spleen, liver and kidney were harvested, placed on ice, homogenized, and colony-forming units determined. The P-value was determined using the Mann-Whitney U-test. Data from three independent experiments were pooled.
Animals were housed under standard conditions of light and temperature AND had free access to standard laboratory chow and water. P. aeruginosa 15159 bacteria were grown to logarithmic phase (OD620˜0.5), harvested, washed in PBS, diluted in the same buffer to 2×10^8 cfu/ml, and kept on ice until injection. Hundred microliter of the bacterial suspension was injected intraperitoneally (i.p.) into female bI6 mice. Immediately subsequent the bacterial injection, 0.5 mg NLF20 (in 10 mM Tris, pH 7.4) or buffer alone was injected i.p. into the mice. In order to study bacterial dissemination to target organs spleen, liver and kidney were harvested, placed on ice, homogenized, and colony-forming units determined. The P-value was determined using the Mann-Whitney U-test. Data from three independent experiments were pooled.

erythrocytes = format: cell-based, human
[1] = Liposome leakage assay (carboxyfluorescein release); conditions: for CF release from liposomes: 10 mM Tris-buffer
Description: The liposomes investigated were anionic (DOPE/DOPG 75/25 mol/mol). DOPG (1,2-Dioleoyl-sn-Glycero-3-Phosphoglycerol, monosodium salt), and DOPE (1,2-dioleoyl-sn-Glycero-3-phoshoetanolamine) were all from Avanti Polar Lipids (Alabaster, USA) and of >99% purity. Due to the long, symmetric and unsaturated acyl chains of these phospholipids, several methodological advantages are reached. In particular, membrane cohesion is good, which facilitates very stable, unilamellar, and largely defect-free liposomes (observed from cryo-TEM) and well defined supported lipid bilayers (observed by ellipsometry and AFM), allowing detailed values on leakage and adsorption density to be obtained. The lipid mixtures were dissolved in chloroform, after which solvent was removed by evaporation under vacuum overnight. Subsequently, 10 mM Tris buffer, pH 7.4, was added together with 0.1 M carboxyfluorescein (CF) (Sigma, St. Louis, USA). After hydration, the lipid mixture was subjected to eight freeze-thaw cycles consisting of freezing in liquid nitrogen and heating to 60° C. Unilamellar liposomes of about Ø140 nm were generated by multiple extrusions through polycarbonate filters (pore size 100 nm) mounted in a LipoFast miniextruder (Avestin, Ottawa, Canada) at 22° C. Untrapped CF was removed by two subsequent gel filtrations (Sephadex G-50, GE Healthcare, Uppsala, Sweden) at 22° C., with Tris buffer as eluent. CF release from the liposomes was determined by monitoring the emitted fluorescence at 520 nm from a liposome dispersion ([…] in 10 mM Tris, pH 7.4). An absolute leakage scale was obtained by disrupting the liposomes at the end of each experiment through addition of 0.8 mM Triton X-100 (Sigma-Aldrich, St. Louis, USA). A SPEX-fluorolog 1650 0.22-m double spectrometer (SPEX Industries, Edison, USA) was used for the liposome leakage assay in Tris buffer in the absence and presence of liposomes under conditions described above. Measurements were performed in triplicate at 37° C.
The liposomes investigated were either zwitterionic (DOPC/cholesterol 60/40 mol/mol or DOPC without cholesterol) or anionic (DOPE/DOPG 75/25 mol/mol). DOPG (1,2-Dioleoyl-sn-Glycero-3-Phosphoglycerol, monosodium salt), DOPC (1,2-dioleoyl-sn-Glycero-3-phoshocholine), and DOPE (1,2-dioleoyl-sn-Glycero-3-phoshoetanolamine) were all from Avanti Polar Lipids (Alabaster, USA) and of >99% purity, while cholesterol (>99% purity), was from Sigma-Aldrich (St. Louis, USA). Due to the long, symmetric and unsaturated acyl chains of these phospholipids, several methodological advantages are reached. […] CF release from the liposomes was determined by monitoring the emitted fluorescence at 520 nm from a liposome dispersion (10 mM lipid in 10 mM Tris, pH 7.4). […]

[2] = 0.5 mg sc 1 h after infection, particularly after 12 h
[3] = sc 1 h, or 1 and 7 h after inoculation

## KYEITTIHNLFRKLTHRLFRRNFGYTLR [KYE28]
P. aeruginosa 15159; 0.5 mg sc 1 h after infection, 4, 8 and 12 h
  Bacterial levels in spleen, kidney and liver: did not significantly reduce bacterial levels
P. aeruginosa 15159; 0.5 mg sc 1 h after infection, after 12 h
  IL-10 in blood: not significantly modulated
P. aeruginosa 15159; [2]
  IFN-γ in blood: concomitant reduction of cytokine levels
  IL-6 in blood: concomitant reduction of cytokine levels
  MCP-1 in blood: concomitant reduction of cytokine levels
  TNF-α in blood: concomitant reduction of cytokine levels
P. aeruginosa 15159; one dose, sc 1 h after inoculation
  Survival: did not increase survival
P. aeruginosa 15159; one dose, sc 1 h after inoculation, 12 h
  Bacterial cfu in organs: did not significantly reduce bacterial cfu
P. aeruginosa 15159; repeated treatment, sc 1 and 7 h after inoculation, 12 h
  Bacterial cfu in organs: moderate reduction of cfu numbers
P. aeruginosa 15159; [3]
  Cytokines in blood: dramatic and highly significant reduction of cytokines in blood
  Platelets: slight, but significant increase in platelets
P. aeruginosa 15159; two-dose regime, sc 1 and 7 h after infection
  Survival / mortality: significantly reduced mortality; also recorded: significant delay of septic symptoms as well as delayed mortality, and eventually also increase in survival
erythrocytes
  Hemolytic activity: significant hemolytic activities at higher doses (30-60 μM)

## KYEITTIHNLFRKLTHRLFRR [KYE21]
[1]
  Time within which ~80% of the maximal CF release occurred: 5 to 10 min
  CF release from liposomes: caused CF release

## NLFRKLTHRLFRRNFGYTLR [NLF20]
P. aeruginosa 15159; 0.5 mg given subcutaneously 1 h after infection
  Bacterial cfu in organs: reductions in cfu
P. aeruginosa 15159; 0.5 mg ip shortly after bacterial injection, 12 h
  Bacterial numbers in spleen, liver and kidney: significantly lower bacterial numbers in the spleen, liver, and kidney
P. aeruginosa 15159; ip and sc
  Thrombocytes in blood: thrombocytes were increased
P. aeruginosa 15159; ip and sc administration
  IL-10 in blood: showing an increase (both administrations)
P. aeruginosa 15159; ip treatment
  TNF-α in blood: a reduction was noted after ip treatment
P. aeruginosa 15159; one dose (500 μg) ip, followed 7 days
  Mortality: significantly reduce mortality
P. aeruginosa 15159; one dose (500 μg) sc, followed 7 days
  Survival: prolong survival
P. aeruginosa 15159; subcutaneous injection after 1 h and then every 24 h for the three following days (FIG. 21)
  Survival: significantly increases survival
erythrocytes
  Hemolytic activity: hemolytic activities at higher doses (30-60 μM)
[1]
  Time within which ~80% of the maximal CF release occurred: 5 to 10 min
  CF release from liposomes: caused CF release
